Our source for the inhibition values is ChEMBL document CHEMBL5653615 (J Biol Chem, 2013).

Test [1] concerns the target T1, Activin receptor type-1B (Homo sapiens) (UniProt P36896).
T1 sequence (whole entry): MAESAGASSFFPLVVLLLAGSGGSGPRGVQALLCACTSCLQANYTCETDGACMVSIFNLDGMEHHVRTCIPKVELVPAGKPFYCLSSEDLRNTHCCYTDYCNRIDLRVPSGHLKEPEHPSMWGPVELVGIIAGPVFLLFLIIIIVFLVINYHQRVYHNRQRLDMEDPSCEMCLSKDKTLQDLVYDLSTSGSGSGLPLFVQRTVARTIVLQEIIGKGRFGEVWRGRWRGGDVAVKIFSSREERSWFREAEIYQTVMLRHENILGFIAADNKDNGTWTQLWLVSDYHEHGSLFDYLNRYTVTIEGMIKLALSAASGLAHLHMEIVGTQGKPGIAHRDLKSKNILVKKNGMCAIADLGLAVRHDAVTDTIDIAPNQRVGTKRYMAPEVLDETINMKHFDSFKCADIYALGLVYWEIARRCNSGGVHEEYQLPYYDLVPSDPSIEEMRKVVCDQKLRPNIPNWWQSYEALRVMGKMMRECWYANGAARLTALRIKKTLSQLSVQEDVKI
Put plainly: Inhibition of human ALK4 at 500 nM by HotSpot assay relative to control.

In test [2] the target is T2, Megakaryocyte-associated tyrosine-protein kinase (Homo sapiens) (UniProt P42679).
T2 sequence (whole entry): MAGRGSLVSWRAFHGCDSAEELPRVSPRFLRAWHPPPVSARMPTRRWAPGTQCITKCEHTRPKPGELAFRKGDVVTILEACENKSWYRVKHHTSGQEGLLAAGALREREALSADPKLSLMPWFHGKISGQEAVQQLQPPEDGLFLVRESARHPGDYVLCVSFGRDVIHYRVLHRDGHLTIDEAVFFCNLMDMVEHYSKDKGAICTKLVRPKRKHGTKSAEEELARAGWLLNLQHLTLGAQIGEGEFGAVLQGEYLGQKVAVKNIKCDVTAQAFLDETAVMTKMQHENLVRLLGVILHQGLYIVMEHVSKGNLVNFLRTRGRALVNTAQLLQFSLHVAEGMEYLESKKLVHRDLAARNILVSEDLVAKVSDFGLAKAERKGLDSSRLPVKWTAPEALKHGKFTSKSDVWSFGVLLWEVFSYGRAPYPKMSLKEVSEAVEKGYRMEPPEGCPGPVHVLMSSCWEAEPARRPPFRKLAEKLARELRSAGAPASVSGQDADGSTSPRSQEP
Put plainly: Inhibition of human CTK at 500 nM by HotSpot assay relative to control.

Test [3] concerns the target T3, G protein-coupled receptor kinase 3 (Homo sapiens) (UniProt P35626).
T3 sequence (whole entry): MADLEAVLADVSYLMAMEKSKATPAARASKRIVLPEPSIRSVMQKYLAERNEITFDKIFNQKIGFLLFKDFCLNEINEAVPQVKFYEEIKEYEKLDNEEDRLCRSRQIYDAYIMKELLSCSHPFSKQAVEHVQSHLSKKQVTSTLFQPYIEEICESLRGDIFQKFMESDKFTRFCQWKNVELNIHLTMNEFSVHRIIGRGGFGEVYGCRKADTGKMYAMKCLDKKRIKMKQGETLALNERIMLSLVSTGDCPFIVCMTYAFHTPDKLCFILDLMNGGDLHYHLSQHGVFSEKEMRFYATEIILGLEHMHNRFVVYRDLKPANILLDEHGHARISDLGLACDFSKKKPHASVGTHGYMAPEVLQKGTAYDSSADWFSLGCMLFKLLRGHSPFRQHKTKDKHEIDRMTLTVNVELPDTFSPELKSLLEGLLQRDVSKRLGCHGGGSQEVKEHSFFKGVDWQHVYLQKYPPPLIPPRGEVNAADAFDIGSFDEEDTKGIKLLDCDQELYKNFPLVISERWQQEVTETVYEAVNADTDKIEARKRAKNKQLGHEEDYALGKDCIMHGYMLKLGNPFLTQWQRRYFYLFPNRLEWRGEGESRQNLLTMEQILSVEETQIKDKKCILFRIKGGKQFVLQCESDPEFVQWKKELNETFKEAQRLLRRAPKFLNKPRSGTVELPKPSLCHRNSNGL
Put plainly: Inhibition of human GRK3 at 500 nM by HotSpot assay relative to control.

In test [4] the target is Serine/threonine-protein kinase PLK1 (Homo sapiens) (UniProt P53350). Put plainly: Inhibition of human PLK1 at 500 nM by HotSpot assay relative to control.
Sequence of Serine/threonine-protein kinase PLK1 (Homo sapiens) (P53350 whole entry): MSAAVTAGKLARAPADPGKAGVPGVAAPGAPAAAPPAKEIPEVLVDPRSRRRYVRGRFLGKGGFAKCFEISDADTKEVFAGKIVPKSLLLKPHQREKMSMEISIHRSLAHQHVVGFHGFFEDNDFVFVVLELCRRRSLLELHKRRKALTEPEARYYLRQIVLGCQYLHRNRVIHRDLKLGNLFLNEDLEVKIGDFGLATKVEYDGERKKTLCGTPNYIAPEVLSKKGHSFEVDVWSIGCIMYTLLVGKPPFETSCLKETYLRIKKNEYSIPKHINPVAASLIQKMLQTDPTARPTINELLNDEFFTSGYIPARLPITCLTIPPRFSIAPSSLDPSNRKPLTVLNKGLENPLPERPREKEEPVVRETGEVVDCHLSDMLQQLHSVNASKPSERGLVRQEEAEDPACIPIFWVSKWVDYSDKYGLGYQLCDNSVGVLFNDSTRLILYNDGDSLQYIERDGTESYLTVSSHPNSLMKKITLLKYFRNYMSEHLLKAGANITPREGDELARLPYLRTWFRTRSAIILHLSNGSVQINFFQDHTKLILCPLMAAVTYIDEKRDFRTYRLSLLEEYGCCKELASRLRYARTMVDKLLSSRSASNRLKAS
The target of test [5] is Serine/threonine-protein kinase SIK2 (Homo sapiens) (UniProt Q9H0K1). Put plainly: Inhibition of human SIK2 at 500 nM by HotSpot assay relative to control.
Sequence of Serine/threonine-protein kinase SIK2 (Homo sapiens) (Q9H0K1 whole entry, looked up): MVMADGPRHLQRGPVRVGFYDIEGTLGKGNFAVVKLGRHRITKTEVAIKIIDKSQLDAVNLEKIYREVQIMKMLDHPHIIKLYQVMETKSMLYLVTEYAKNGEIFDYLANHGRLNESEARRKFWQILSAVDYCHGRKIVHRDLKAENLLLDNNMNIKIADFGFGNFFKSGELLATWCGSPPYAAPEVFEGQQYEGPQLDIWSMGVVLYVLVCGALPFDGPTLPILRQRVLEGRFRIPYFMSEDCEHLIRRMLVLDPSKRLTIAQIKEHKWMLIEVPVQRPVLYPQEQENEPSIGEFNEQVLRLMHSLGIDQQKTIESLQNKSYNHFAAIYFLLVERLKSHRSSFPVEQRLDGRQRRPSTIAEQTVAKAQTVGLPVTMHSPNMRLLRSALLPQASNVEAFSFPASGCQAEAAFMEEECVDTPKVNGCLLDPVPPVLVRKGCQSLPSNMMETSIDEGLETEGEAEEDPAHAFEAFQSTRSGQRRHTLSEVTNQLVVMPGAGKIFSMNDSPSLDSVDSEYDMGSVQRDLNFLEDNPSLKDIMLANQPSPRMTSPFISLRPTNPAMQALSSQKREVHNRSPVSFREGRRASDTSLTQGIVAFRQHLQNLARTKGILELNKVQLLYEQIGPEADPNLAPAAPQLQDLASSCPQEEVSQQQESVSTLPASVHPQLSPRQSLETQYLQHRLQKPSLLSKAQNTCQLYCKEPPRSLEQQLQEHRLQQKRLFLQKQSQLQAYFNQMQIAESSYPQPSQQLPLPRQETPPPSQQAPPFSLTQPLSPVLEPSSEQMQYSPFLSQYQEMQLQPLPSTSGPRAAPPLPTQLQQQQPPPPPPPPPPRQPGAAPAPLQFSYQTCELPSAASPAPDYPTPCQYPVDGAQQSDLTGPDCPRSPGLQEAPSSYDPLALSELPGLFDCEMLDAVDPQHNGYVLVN
The target of test [6] is SRSF protein kinase 1 (Homo sapiens) (UniProt Q96SB4). Put plainly: Inhibition of human SRPK1 at 500 nM by HotSpot assay relative to control.
Sequence of SRSF protein kinase 1 (Homo sapiens) (Q96SB4 whole entry): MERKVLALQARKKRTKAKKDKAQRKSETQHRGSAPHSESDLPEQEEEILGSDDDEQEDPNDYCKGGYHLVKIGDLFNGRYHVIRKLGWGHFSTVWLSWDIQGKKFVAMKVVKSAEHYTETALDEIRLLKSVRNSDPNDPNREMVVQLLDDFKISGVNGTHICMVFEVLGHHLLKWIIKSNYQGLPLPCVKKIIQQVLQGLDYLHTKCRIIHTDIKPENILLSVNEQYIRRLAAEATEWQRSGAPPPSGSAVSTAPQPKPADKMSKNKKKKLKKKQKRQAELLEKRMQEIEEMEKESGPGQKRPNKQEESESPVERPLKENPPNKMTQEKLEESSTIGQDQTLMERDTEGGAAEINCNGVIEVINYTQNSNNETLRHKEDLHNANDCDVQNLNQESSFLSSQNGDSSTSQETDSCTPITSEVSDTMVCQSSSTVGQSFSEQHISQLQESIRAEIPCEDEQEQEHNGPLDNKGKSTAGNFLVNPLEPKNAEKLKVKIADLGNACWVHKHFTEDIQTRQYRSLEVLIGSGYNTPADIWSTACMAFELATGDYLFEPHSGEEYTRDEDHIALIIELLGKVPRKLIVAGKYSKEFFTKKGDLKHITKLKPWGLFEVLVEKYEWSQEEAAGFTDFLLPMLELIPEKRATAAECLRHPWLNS
Test [7] has as its target T4, Serine/threonine-protein kinase TBK1 (Homo sapiens) (UniProt Q9UHD2).
T4 sequence (whole entry): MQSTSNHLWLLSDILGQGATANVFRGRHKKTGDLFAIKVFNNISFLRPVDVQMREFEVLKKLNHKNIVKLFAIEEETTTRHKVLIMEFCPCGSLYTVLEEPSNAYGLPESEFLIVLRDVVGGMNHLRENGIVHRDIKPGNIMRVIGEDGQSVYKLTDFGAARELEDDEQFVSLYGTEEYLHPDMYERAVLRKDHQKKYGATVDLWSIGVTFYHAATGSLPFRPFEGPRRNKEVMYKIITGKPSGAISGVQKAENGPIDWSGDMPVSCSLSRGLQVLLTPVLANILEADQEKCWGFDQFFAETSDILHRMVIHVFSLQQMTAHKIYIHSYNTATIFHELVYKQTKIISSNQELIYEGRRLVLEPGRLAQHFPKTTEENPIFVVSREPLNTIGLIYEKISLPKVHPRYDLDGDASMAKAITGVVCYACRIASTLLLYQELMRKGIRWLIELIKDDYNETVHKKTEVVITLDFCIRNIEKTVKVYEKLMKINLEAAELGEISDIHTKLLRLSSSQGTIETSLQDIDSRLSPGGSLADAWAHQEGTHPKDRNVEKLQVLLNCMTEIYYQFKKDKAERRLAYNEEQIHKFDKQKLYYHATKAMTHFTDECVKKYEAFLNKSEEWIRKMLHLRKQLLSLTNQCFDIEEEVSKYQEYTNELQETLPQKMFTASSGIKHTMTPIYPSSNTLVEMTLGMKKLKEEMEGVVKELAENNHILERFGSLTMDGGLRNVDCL
The test is described as follows: Inhibition of human TBK1 at 500 nM by HotSpot assay relative to control.

Test [8] addresses Leukocyte tyrosine kinase receptor (Homo sapiens) (UniProt P29376). The test is described as follows: Inhibition of human LTK at 500 nM by HotSpot assay relative to control.

What is called inhibition is the drop in the measured response relative to a control, in per cent.

Sequence of Leukocyte tyrosine kinase receptor (Homo sapiens) (P29376 whole entry): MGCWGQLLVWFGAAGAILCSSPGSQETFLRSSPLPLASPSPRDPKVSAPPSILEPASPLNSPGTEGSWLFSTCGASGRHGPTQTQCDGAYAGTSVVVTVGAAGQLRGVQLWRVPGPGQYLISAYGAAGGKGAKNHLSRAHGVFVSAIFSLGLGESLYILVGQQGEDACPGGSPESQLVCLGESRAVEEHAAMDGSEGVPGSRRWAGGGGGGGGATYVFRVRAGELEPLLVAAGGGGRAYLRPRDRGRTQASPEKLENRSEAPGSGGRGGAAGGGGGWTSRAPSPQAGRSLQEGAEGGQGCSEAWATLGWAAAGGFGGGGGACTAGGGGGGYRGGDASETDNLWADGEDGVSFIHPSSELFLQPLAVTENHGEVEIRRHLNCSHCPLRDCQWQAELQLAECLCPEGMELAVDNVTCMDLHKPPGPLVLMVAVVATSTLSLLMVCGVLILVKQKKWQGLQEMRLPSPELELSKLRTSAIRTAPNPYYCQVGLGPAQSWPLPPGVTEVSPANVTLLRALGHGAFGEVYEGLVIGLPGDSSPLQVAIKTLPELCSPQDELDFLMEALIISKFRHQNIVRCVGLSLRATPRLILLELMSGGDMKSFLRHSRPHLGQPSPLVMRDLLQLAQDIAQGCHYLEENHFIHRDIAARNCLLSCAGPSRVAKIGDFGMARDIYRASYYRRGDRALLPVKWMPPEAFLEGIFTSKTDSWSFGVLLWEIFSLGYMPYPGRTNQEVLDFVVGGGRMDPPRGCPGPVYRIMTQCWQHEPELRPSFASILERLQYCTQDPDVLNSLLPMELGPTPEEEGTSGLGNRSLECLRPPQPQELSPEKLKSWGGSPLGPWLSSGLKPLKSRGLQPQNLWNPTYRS

Regarding `Nc1n[nH]c2nnc(-c3c(-c4ccccc4)nn4ccccc34)cc12`, the inhibition in test [1] is -6.71%; in test [2], 4.4%; in test [3], -0.84%; in test [4], 1.9%; in test [5], 6.36%; in test [6], 16.3%. For the same compound, the results for the inhibition in test [7] and in test [8] were -0.37% and 9.45%, respectively.

`Oc1n[nH]c2nnc(-c3c(-c4ccccc4)nn4ccccc34)cc12`: the inhibition in test [1] is 0.15%; in test [2], 1.78%; in test [3], -1.47%; in test [4], 2.92%; in test [5], 14.5%; in test [6], 10.4%. The inhibition is -4.04% in test [7] and -7.87% in test [8].
